Test results: patent publication US20100284924A1, “NANO-DEVICES HAVING IMPELLERS FOR CAPTURE AND RELEASE OF MOLECULES” (The Regents of the University of California, priority 2009, published 2010)

Tests used:
PANC-1 cancer cells [1] = experiment: Cell death assay, propidium iodide/Hoechst 33342 double-staining, confocal imaging; assay type: cell-based, human; conditions: CPT suspended in PBS, not in particles
Method: FIGS. 9A-9C show light-triggered delivery of the anticancer drug camptothecin (CPT) inside PANC-1 cancer cells to induce apoptosis according to an embodiment of the current invention, CPT molecules were loaded into the pores of the LAMS and a homogeneous suspension of the CPT-loaded particles (10 μg/ml) was added to the cells which were incubated in Lab-Tek chamber slides for 3 hrs in dark. The cells were then irradiated under ˜0.1 W/cm^2, 413 nm light for 1 to 10 min, again incubated in the dark for 48 hours, and double-stained with propidium iodide/Hoechst 33342 solution (1:1). FIG. 9A. CPT-loaded particles were incubated with cancer cells and illuminated for 1 (a), 3 (b), 5 (c) or 10 min (d, e, f). FIG. 9B. […]
Cell Death Assay: Cell death was also examined by using the propidium iodide and Hoechst 33342 double-staining method. The cells incubated on a Lab-Tek chamber slide system were stained with propidium iodide/Hoechst 33342 (1:1) for 5 min after treatment with CPT-loaded LAMS or free LAMS followed by light irradiation, and then examined with fluorescence microscopy. […] The absorbance of each well was measured at 450 nm with a plate reader. Since the absorbance is proportional to the number of viable cells in the medium, the viable cell number was determined by using a previously prepared calibration curve (Dojindo Co.).

PANC-1 cancer cells [2] = experiment: Photocontrolled staining of cell nuclei by released PI, confocal microscopy; assay type: cell-based, human; conditions: free PI not loaded into the particles
Method: FIGS. 8A-8C show confocal microscope images of the photocontrolled staining of the nuclei of PANC-1 cancer cells. Plasma membrane impermeable propidium iodide (PI) molecules were loaded in the pores of LAMS and the dye loaded particles were incubated with the cells for 3 hours in the dark. The cells were then exposed to the activation beam for 1 to 10 min. After further incubation in the dark for 10 min, the cells were examined with confocal microscopy ([…]) FIG. 8A. Cells incubated with the PI-loaded LAMS and illuminated for 0 (a), 1 (b), 3 (c), or 5 min (f) under a constant ˜0.2 W/cm^2, 413 nm light or with different light intensities (˜0.01 (d) or ˜0.1 W/cm^2 (e) for 5 min at a 413 nm light). FIG. 8B. PANC-1 cells incubated with the PI-loaded LAMS (g), free PI molecules (h), or empty LAMS (i) were kept in the dark and exposed to a 413 nm light. FIG. 8C. Cells incubated with the PI-loaded LAMS were illuminated with ˜0.2 W/cm^2, 676 nm light for 0 (j), 1 (k) or 5 min (l). Scale bar: 30 μm.
Based on the successful operation of the impeller in water, in vitro studies were carried out on two human cancer cell lines (PANC-1 and SW480). To detect the photo-responsive behavior of the impellers inside of cells, a membrane-impermeable dye, PI was chosen as the fluorescent probe molecule and loaded into the particles following the same procedure as that used for the Rhodamine B loading. […]

SMILES: CC[C@@]1(O)C(=O)OCc2c1cc1n(c2=O)Cc2cc3ccccc3nc2-1 [CPT, camptothecin]
- cell killing (PANC-1 cancer cells [1]): did not kill the cells

SMILES: CC[N+](C)(CC)CCC[n+]1c(-c2ccccc2)c2cc(N)ccc2c2ccc(N)cc21.[I-].[I-] [PI, propidium iodide]
- cell staining (cell entry) (PANC-1 cancer cells [2]): cell staining did not occur
